# Source: patent US20100247485A1, “FORMULATIONS AND DEVICES FOR […] TO […] MICR[…] ARTHOPODS” (MEVLABS, INC., priority 2007, published 2010)
# Tested on: Anopheles mosquitoe species
# Experiment: Lethality of drug to Anopheles mosquitoes
# Settings: 7 μg/ml (estimated ED 50 of Pyremethamine)
smiles,measurement,value
CCc1nc(N)nc(N)c1-c1ccc(Cl)cc1 [Pyremethamine],lethality to mosquitoes at the estimated ED50,not lethal
